Molecular target: T1, IDO1 (Homo sapiens, UniProt P14902)
T1 construct: HeLa cells were treated with a test compound in the presence of IFNγ, which induces IDO1 expression; host or cells: H1-HeLa cells, IDO1 induced with IFNγ
Assay: Cell-based (HeLa) assay for measurement of IDO1 inhibition (kynurenine levels in supernatant after IFNγ induction)
Conditions: HeLa cells, geometric mean of a minimum of four determinations
Summary of the method: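 HeLa cells, 1,250 per well, treated with compound (0.5% DMSO final) plus IFNγ to induce IDO1, for 48 h. Supernatant kynurenine measured by TCA hydrolysis at 60 °C, then p-dimethylaminobenzaldehyde, absorbance 480 nm. EC50 from a four-parameter fit normalized to −/+IFNγ controls; geometric mean of at least four runs.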

[1] = IFNγ-induced IDO1, kynurenine in supernatant, 48 hour incubation
[2] = IFNγ-induced IDO1, kynurenine in supernatant after 48 hour incubation

T1 sequence (P14902 whole entry): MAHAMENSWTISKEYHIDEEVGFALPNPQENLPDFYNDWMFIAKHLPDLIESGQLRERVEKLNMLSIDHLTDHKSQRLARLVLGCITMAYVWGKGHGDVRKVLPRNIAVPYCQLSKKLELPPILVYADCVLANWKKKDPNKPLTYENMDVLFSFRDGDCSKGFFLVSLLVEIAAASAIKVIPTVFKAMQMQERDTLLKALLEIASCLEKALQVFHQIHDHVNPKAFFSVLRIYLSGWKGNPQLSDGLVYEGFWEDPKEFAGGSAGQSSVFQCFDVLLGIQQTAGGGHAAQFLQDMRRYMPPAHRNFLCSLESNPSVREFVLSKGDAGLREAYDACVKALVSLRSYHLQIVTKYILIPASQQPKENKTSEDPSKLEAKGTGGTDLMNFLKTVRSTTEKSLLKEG

O/N=C(\Nc1cccc(Cl)c1)c1cc(F)c(F)c2nc(NCCN3CCCC3)[nH]c12 [Example 330, N-(3-chlorophenyl)-4,5-difluoro-N′-hydroxy-2-((2-(pyrrolidin-1-yl)ethyl)amino)-1H-benzo[d]imidazole-7-carboximidamide]
EC50 [1]: 414 nM

N#CCCNc1nc2c(F)c(F)cc(/C(=N/O)Nc3ccc(F)c(Cl)c3)c2[nH]1 [Example 340, N-(3-chloro-4-fluorophenyl)-2-((2-cyanoethyl)amino)-4,5-difluoro-N′-hydroxy-1H-benzo[d]imidazole-7-carboximidamide]
EC50 [1]: 1780 nM

CC(CN(C)C)Nc1nc2c(F)c(F)cc(/C(=N/O)Nc3ccc(F)c(Cl)c3)c2[nH]1 (stereo not drawn) [Example 378, N-(3-chloro-4-fluorophenyl)-2-((1-(dimethylamino)propan-2-yl)amino)-4,5-difluoro-N′-hydroxy-1H-benzo[d]imidazole-7-carboximidamide]
EC50 [1]: 1400 nM

CC1CN(C(C)CNc2nc3nccc(/C(=N/O)Nc4ccc(F)c(Cl)c4)c3[nH]2)CC(C)O1 (stereo not drawn) [Example 483, N-(3-chloro-4-fluorophenyl)-2-((2-(2,6-dimethylmorpholino)propyl)amino)-N′-hydroxy-1H-imidazo[4,5-b]pyridine-7-carboximidamide]
EC50 [1]: 668 nM

O/N=C(\Nc1ccc(OC(F)(F)F)cc1)c1ccnc2nc[nH]c12 [Example 66, N′-Hydroxy-N-(4-(trifluoromethoxy)phenyl)-1H-imidazo[4,5-b]pyridine-7-carboximidamide]
EC50 [2]: 4870 nM

O/N=C(\Nc1cc2ccccc2cc1Cl)c1ccnc2nc[nH]c12 [Example 103, N-(3-Chloronaphthalen-2-yl)-N′-hydroxy-1H-imidazo[4,5-b]pyridine-7-carboximidamide]
EC50 [2]: 8070 nM

CN1CCOC(CNc2nc3nccc(/C(=N/O)Nc4ccc(F)c(Cl)c4)c3[nH]2)C1 (stereo not drawn) [Example 357, N-(3-chloro-4-fluorophenyl)-N′-hydroxy-2-(((4-methylmorpholin-2-yl)methyl)amino)-1H-imidazo[4,5-b]pyridine-7-carboximidamide]
EC50 [1]: 3240 nM

CN(C)c1nc2nccc(/C(=N/O)Nc3ccc(F)c(Cl)c3)c2[nH]1 [Example 169, N-(3-Chloro-4-fluorophenyl)-2-(dimethylamino)-N′-hydroxy-1H-imidazo[4,5-b]pyridine-7-carboximidamide]
EC50 [2]: 6270 nM

CN(CCNc1nc2nccc(/C(=N/O)Nc3ccc(F)c(Cl)c3)c2[nH]1)CC(F)F [Example 220, N-(3-chloro-4-fluorophenyl)-2-((2-((2,2-difluoroethyl)(methyl)amino)ethyl)amino)-N′-hydroxy-1H-imidazo[4,5-b]pyridine-7-carboximidamide]
EC50 [2]: 2380 nM

CNCc1nc2nccc(/C(=N/O)Nc3ccc(F)c(Cl)c3)c2[nH]1 [Example 178, N-(3-Chloro-4-fluorophenyl)-N′-hydroxy-2-((methylamino)methyl)-1H-imidazo[4,5-b]pyridine-7-carboximidamide]
EC50 [2]: 1480 nM

O/N=C(\Nc1ccc(F)c(Cl)c1)c1ccnc2nc(CC3CCCCN3)[nH]c12 (stereo not drawn) [Example 325, N-(3-chloro-4-fluorophenyl)-N′-hydroxy-2-(piperidin-2-ylmethyl)-1H-imidazo[4,5-b]pyridine-7-carboximidamide]
EC50 [1]: > 10000 nM

O/N=C(\Nc1ccc(F)c(Cl)c1)c1ccnc2nc(NCCN3CCOCC3)[nH]c12 [Example 168, N-(3-Chloro-4-fluorophenyl)-N′-hydroxy-2-((2-morpholinoethyl)amino)-1H-imidazo[4,5-b]pyridine-7-carboximidamide]
EC50 [2]: 1160 nM

O/N=C(\Nc1ccc(F)c(Cl)c1)c1ccc(Br)c2nc[nH]c12 [Example 12, 4-Bromo-N-(3-chloro-4-fluorophenyl)-N′-hydroxy-1H-benzo[d]imidazole-7-carboximidamide]
EC50 [2]: 660 nM

O/N=C(\Nc1ccc(Cl)c2ccccc12)c1ccnc2nc[nH]c12 [Example 105, N-(4-Chloronaphthalen-1-yl)-N′-hydroxy-1H-imidazo[4,5-b]pyridine-7-carboximidamide]
EC50 [2]: 3030 nM

OCCN(CCNc1nc2nccc(/C(=N/O)Nc3ccc(F)c(Cl)c3)c2[nH]1)C1CC1 [Example 407, N-(3-chloro-4-fluorophenyl)-2-((2-(cyclopropyl(2-hydroxyethyl)amino)ethyl)amino)-N′-hydroxy-1H-imidazo[4,5-b]pyridine-7-carboximidamide]
EC50 [1]: 2120 nM

CN1CCOC(CNc2nc3c(F)c(F)cc(/C(=N/O)Nc4ccc(F)c(Cl)c4)c3[nH]2)C1 (stereo not drawn) [Example 356, N-(3-chloro-4-fluorophenyl)-4,5-difluoro-N′-hydroxy-2-(((4-methylmorpholin-2-yl)methyl)amino)-1H-benzo[d]imidazole-7-carboximidamide]
EC50 [1]: 3260 nM

C#Cc1cccc(N/C(=N\O)c2ccnc3nc[nH]c23)c1 [Example 95, N-(3-ethynylphenyl)-N′-hydroxy-1H-imidazo[4,5-b]pyridine-7-carboximidamide]
EC50 [2]: 302 nM

CN(C)C(CNc1nc2c(F)c(F)cc(/C(=N/O)Nc3ccc(F)c(Cl)c3)c2[nH]1)c1ccccc1 (stereo not drawn) [Example 436, N-(3-chloro-4-fluorophenyl)-2-((2-(dimethylamino)-2-phenylethyl)amino)-4,5-difluoro-N′-hydroxy-1H-benzo[d]imidazole-7-carboximidamide]
EC50 [1]: 2020 nM

O/N=C(\Nc1ccc(F)c(Cl)c1)c1cc(F)c(F)c2nc(NCc3ncccn3)[nH]c12 [Example 350, N-(3-chloro-4-fluorophenyl)-4,5-difluoro-N′-hydroxy-2-((pyrimidin-2-ylmethyl)amino)-1H-benzo[d]imidazole-7-carboximidamide]
EC50 [1]: 7030 nM

CN(C)CCc1nc2nccc(/C(=N/O)Nc3ccc(F)c(Cl)c3)c2[nH]1 [Example 184, N-(3-Chloro-4-fluorophenyl)-2-(2-(dimethylamino)ethyl)-N′-hydroxy-1H-imidazo[4,5-b]pyridine-7-carboximidamide]
EC50 [2]: 593 nM

CCNCc1nc2c(F)ccc(/C(=N/O)Nc3ccc(F)c(Cl)c3)c2[nH]1 [Example 287, N-(3-chloro-4-fluorophenyl)-2-((ethylamino)methyl)-4-fluoro-N′-hydroxy-1H-benzo[d]imidazole-7-carboximidamide]
EC50 [2]: 1670 nM

Nc1nc2c(F)c(F)cc(/C(=N/O)Nc3cccc(Cl)c3)c2[nH]1 [Example 16, 2-Amino-N-(3-chlorophenyl)-4,5-difluoro-N′-hydroxy-1H-benzo[d]imidazole-7-carboximidamide]
EC50 [2]: 607 nM

O/N=C(\Nc1ccc(F)c(Cl)c1)c1ccnc2nc(NC3CCOC3)[nH]c12 (stereo not drawn) [Example 227, N-(3-chloro-4-fluorophenyl)-N′-hydroxy-2-((tetrahydrofuran-3-yl)amino)-1H-imidazo[4,5-b]pyridine-7-carboximidamide]
EC50 [2]: 2190 nM

O/N=C(\Nc1ccc(F)c(Cl)c1)c1cc(F)c(F)c2nc(NCCn3cccn3)[nH]c12 [Example 300, 2-((2-(1H-pyrazol-1-yl)ethyl)amino)-N-(3-chloro-4-fluorophenyl)-4,5-difluoro-N′-hydroxy-1H-benzo[d]imidazole-7-carboximidamide]
EC50 [1]: 3570 nM

NS(=O)(=O)CCNc1nc2c(F)c(F)cc(/C(=N/O)Nc3ccc(F)c(Cl)c3)c2[nH]1 [Example 298, N-(3-chloro-4-fluorophenyl)-4,5-difluoro-N′-hydroxy-2-((2-sulfamoylethyl)amino)-1H-benzo[d]imidazole-7-carboximidamide]
EC50 [2]: 9560 nM

CNCCc1nc2c(/C(=N/O)Nc3ccc(F)c(Cl)c3)cc(F)c(F)c2[nH]1 [Example 57, N-(3-Chloro-4-fluorophenyl)-6,7-difluoro-N′-hydroxy-2-(2-(methylamino)ethyl)-1H-benzo[d]imidazole-4-carboximidamide]
EC50 [2]: 1090 nM

CN(C)C1CCCC1Nc1nc2c(F)c(F)cc(/C(=N/O)Nc3ccc(F)c(Cl)c3)c2[nH]1 (stereo not drawn) [Example 461, N-(3-chloro-4-fluorophenyl)-2-((2-(dimethylamino)cyclopentyl)amino)-4,5-difluoro-N′-hydroxy-1H-benzo[d]imidazole-7-carboximidamide]
EC50 [1]: 472 nM

O/N=C(\Nc1ccc(F)c(Cl)c1)c1ccnc2nc(C3CC3)[nH]c12 [Example 109, N-(3-Chloro-4-fluorophenyl)-2-cyclopropyl-N′-hydroxy-1H-imidazo[4,5-b]pyridine-7-carboximidamide]
EC50 [2]: 1390 nM

O/N=C(\Nc1ccc(F)c(Cl)c1)c1ccc(F)c2nc(NCCN3CCOCC3)[nH]c12 [Example 34, N-(3-Chloro-4-fluorophenyl)-4-fluoro-N′-hydroxy-2-((2-morpholinoethyl)amino)-1H-benzo[d]imidazole-7-carboximidamide]
EC50 [2]: 6740 nM

CN(C)CC(O)CNc1nc2c(F)c(F)cc(/C(=N/O)Nc3ccc(F)c(Cl)c3)c2[nH]1 (stereo not drawn) [Example 448, N-(3-chloro-4-fluorophenyl)-2-((3-(dimethylamino)-2-hydroxypropyl)amino)-4,5-difluoro-N′-hydroxy-1H-benzo[d]imidazole-7-carboximidamide]
EC50 [1]: 1120 nM

O/N=C(\Nc1ccc(F)c(Cl)c1)c1cc(F)c(F)c2nc(NC3CCNC3)[nH]c12 (stereo not drawn) [Example 464, N-(3-chloro-4-fluorophenyl)-4,5-difluoro-N′-hydroxy-2-(pyrrolidin-3-ylamino)-1H-benzo[d]imidazole-7-carboximidamide]
EC50 [1]: 2350 nM

CN(CCNc1nc2nccc(/C(=N/O)Nc3ccc(F)c(Cl)c3)c2[nH]1)C1CC1 [Example 231, N-(3-chloro-4-fluorophenyl)-2-((2-(cyclopropyl(methyl)amino)ethyl)amino)-N′-hydroxy-1H-imidazo[4,5-b]pyridine-7-carboximidamide]
EC50 [2]: 291 nM

O/N=C(\Nc1ccc(F)c(Cl)c1)c1ccnc2nc(CNc3ccccc3)[nH]c12 [Example 128, N-(3-Chloro-4-fluorophenyl)-N′-hydroxy-2-((phenylamino)methyl)-1H-imidazo[4,5-b]pyridine-7-carboximidamide]
EC50 [2]: 2400 nM

Reference: patent publication US9951065B2 (Gilead Sciences, Inc., priority 2015, dated 2018)
